Test results reported in patent US10131692B2, “Vasopressin-2 receptor agonists” (Ferring B.V., priority 2013, dated 2018).

Tests used:
[1] = in vivo; cited from earlier work
[2] = target: human V2 receptor (h V2R) (Homo sapiens (Human), UniProt P30518); experiment: hV2 receptor agonist transcriptional reporter gene (luciferase) assay; type: cell-based; conditions: HEK-293 cells transiently transfected with hV2 receptor, dDAVP internal control

| Substance | route of clearance from the body [1] | % Efficacy hV2-R [2] [%] |
| --- | --- | --- |
| [1-deamino, 8-D-arginine]-vasopressin [Compound 42] | cleared from the body primarily by the kidneys | – |
| [Val4]dDAVP [Compound 43] | – | 89 |
